Results reported in the supplement of paper PMC12463676, “Small-molecule dissolution of stress granules by redox modulation benefits ALS models” (Nature Chemical Biology, 2025).

What was measured:
lipoamide = compound: NC(=O)CCCCC1CCSS1 [lipoamide]; experiment: thermal stability z-score vs DMSO; higher = more thermally stabilized by treatment; conditions: HeLa, lipoamide concentration 100 µM
Description: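 Cellular thermal proteome profiling in HeLa cells. Cells were treated with 100 µM lipoamide for 1 h, with or without 1 mM arsenate for a further 1 h, then heated to ten temperatures (37-66.3 °C), and soluble protein was quantified by TMT mass spectrometry relative to 0.1% DMSO controls. The thermal stability score (sum of log2 fold changes minus the abundance score) was transformed to a z-score; mean of n = 3 experiments.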

potassium arsenate = compound: O=[As]([O-])(O)O.[K+] [potassium arsenate]; experiment: as above; conditions: HeLa; arsenate concentration 1 mM
Description: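 Cellular thermal proteome profiling in HeLa cells treated with 1 mM arsenate for 1 h (DMSO pretreatment), heated to ten temperatures (37-66.3 °C). Soluble protein was quantified by TMT mass spectrometry relative to DMSO controls; the thermal stability score was transformed to a z-score; mean of n = 3 experiments.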

[1] = arsenate co-treatment: 1 mM arsenate 1 h
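Further: each temperature applied for 3 min, abundance score taken as mean log2 fold change at the two lowest temperatures, z-score obtained by mean subtraction and division by SD.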

UniProt Q9UFN0, sequence (Q9UFN0 whole entry): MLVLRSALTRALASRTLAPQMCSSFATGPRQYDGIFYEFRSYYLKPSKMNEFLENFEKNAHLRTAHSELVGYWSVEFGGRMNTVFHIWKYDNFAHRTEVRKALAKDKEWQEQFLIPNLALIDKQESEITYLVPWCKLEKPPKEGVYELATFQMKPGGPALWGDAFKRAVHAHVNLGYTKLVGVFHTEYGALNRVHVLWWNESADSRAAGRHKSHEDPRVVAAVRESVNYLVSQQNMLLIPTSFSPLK
UniProt Q9BPW8, sequence (Q9BPW8 whole entry): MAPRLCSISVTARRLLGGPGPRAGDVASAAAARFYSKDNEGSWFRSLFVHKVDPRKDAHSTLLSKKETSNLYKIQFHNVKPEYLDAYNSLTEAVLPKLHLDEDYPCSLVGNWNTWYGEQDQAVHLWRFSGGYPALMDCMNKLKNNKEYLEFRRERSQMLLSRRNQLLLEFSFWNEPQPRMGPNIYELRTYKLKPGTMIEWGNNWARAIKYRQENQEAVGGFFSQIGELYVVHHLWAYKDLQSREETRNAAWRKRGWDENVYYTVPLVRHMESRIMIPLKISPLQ
UniProt Q9NQR4, sequence (Q9NQR4 whole entry): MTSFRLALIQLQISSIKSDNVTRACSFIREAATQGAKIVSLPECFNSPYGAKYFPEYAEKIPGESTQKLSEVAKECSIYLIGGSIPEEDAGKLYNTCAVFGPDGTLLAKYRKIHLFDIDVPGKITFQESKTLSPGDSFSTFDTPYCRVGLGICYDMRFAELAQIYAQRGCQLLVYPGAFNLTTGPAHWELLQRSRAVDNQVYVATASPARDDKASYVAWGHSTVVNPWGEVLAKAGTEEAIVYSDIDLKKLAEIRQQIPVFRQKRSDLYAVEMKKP
UniProt Q86X76, sequence (Q86X76 whole entry): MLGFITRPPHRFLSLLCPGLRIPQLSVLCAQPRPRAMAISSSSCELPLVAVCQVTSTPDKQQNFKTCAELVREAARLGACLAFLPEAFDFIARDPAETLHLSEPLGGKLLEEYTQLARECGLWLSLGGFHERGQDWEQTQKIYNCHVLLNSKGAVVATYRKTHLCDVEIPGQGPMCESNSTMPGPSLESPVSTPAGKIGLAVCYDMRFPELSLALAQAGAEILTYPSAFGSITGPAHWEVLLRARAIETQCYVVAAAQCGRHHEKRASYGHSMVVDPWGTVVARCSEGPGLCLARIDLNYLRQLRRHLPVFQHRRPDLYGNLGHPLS
UniProt Q6KC79, sequence (Q6KC79 whole entry): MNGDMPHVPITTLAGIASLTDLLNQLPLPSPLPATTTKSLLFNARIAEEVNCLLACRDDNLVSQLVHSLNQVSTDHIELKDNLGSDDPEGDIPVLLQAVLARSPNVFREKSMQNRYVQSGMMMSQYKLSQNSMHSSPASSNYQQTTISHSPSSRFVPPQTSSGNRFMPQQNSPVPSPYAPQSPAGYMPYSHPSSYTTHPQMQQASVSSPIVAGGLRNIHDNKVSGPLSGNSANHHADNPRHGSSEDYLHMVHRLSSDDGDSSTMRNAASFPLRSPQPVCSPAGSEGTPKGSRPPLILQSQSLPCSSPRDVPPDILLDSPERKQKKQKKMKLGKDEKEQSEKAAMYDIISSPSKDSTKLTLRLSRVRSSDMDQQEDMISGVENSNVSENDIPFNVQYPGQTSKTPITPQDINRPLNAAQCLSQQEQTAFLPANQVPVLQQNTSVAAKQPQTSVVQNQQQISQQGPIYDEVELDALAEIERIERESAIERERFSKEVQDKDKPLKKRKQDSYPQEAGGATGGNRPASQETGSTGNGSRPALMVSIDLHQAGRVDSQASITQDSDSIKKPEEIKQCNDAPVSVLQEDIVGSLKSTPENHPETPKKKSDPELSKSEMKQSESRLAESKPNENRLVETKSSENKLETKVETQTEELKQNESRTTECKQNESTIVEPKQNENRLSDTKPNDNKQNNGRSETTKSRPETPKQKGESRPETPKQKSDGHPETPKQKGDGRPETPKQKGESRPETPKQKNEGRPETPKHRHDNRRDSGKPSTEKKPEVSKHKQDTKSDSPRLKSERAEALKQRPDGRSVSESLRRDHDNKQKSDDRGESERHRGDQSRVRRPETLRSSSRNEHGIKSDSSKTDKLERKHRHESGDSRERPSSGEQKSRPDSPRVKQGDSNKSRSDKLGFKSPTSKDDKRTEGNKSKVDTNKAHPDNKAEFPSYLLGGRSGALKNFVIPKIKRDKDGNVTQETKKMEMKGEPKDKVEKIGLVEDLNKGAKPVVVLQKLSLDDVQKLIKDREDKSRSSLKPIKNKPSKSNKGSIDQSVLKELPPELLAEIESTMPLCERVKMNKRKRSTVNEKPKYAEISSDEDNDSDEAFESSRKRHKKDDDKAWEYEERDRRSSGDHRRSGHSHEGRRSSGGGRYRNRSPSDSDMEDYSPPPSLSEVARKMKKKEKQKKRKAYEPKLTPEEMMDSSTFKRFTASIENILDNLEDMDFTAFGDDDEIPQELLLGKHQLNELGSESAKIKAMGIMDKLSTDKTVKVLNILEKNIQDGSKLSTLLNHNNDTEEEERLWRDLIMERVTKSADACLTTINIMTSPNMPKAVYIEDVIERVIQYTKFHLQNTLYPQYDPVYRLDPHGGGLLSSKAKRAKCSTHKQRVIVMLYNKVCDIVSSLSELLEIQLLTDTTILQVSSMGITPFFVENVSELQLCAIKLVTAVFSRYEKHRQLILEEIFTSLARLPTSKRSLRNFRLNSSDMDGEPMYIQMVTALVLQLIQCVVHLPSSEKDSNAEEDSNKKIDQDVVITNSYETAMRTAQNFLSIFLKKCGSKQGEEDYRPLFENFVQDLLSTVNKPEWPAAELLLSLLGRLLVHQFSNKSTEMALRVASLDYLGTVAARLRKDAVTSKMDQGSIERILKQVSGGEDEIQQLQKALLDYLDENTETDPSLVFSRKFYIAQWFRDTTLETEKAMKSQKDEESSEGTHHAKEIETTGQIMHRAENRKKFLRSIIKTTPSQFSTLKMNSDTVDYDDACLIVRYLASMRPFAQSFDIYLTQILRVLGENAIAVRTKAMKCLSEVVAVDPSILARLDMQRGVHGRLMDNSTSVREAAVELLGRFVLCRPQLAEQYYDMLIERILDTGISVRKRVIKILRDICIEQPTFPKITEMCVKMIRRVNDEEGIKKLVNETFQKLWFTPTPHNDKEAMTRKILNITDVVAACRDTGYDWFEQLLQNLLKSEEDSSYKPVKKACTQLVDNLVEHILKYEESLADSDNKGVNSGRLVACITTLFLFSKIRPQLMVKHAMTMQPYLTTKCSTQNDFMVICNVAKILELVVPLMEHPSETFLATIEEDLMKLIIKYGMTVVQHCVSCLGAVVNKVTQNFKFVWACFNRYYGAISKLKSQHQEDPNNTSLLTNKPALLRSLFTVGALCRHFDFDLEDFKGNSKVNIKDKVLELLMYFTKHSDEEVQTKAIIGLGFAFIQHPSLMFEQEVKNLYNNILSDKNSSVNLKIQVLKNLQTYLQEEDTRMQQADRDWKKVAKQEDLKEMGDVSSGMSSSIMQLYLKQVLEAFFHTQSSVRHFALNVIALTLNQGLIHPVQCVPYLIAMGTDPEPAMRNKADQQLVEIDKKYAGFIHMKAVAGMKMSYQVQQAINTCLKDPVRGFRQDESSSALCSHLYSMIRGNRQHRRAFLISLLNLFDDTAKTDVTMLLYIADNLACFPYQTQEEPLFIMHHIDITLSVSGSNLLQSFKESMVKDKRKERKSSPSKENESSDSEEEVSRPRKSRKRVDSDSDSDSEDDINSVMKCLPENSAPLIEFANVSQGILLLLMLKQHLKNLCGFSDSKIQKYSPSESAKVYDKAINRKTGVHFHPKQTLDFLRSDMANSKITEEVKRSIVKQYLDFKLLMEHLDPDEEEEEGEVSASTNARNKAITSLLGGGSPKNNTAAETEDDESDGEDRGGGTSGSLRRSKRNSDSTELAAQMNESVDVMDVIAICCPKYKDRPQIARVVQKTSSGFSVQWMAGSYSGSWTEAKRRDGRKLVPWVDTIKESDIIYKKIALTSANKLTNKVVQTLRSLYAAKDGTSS
UniProt Q8N8Q9, sequence (Q8N8Q9 whole entry): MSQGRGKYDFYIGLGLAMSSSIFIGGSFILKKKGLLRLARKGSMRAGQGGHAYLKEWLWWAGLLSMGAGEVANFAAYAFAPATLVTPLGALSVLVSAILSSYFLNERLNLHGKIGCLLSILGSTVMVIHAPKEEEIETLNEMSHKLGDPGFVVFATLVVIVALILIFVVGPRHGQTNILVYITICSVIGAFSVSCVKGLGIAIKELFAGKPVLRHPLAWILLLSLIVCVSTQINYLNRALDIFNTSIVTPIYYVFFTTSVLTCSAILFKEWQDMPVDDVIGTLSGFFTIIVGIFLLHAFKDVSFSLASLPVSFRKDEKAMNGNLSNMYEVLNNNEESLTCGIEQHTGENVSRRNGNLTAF
UniProt Q9NX24, sequence (Q9NX24 whole entry): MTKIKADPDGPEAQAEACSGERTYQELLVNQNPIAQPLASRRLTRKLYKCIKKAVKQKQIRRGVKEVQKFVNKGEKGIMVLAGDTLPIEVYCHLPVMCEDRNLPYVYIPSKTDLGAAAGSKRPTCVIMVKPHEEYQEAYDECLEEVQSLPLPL
UniProt Q9GZT8, sequence (Q9GZT8 whole entry): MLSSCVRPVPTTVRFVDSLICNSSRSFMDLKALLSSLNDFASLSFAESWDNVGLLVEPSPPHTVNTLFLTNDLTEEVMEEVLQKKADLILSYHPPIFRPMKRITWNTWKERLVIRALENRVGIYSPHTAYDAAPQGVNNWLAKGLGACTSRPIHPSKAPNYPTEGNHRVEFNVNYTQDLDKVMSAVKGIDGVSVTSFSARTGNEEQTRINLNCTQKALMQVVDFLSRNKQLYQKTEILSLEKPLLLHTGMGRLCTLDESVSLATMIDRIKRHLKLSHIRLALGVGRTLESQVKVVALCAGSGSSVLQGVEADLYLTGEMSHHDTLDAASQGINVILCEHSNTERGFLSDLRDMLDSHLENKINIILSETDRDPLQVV
UniProt Q9Y221, sequence (Q9Y221 whole entry): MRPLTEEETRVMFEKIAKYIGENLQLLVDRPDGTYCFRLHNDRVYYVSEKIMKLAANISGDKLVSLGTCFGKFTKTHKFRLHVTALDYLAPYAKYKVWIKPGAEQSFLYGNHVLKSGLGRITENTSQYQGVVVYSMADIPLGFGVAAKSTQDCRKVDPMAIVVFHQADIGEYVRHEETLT

Target	thermal stability z-score (lipoamide; [1])	thermal stability z-score (lipoamide; arsenate co-treatment: none)	thermal stability z-score (potassium arsenate)
NFYC (UniProt Q13952)	0.024	0.385	-0.0961
NGLY1 (UniProt Q96IV0)	-0.149	-0.0587	0.0507
NGRN (UniProt Q9NPE2)	0.637	0.0666	-0.378
NHLRC2 (UniProt Q8NBF2)	-0.233	0.152	-2.19
NHP2 (UniProt Q9NX24)	-0.434	-0.739	-0.721
NHS (UniProt Q6T4R5)	-0.604	0.0609	-0.851
NHSL1 (UniProt Q5SYE7)	0.0509	0.218	0.0815
NIF3L1 (UniProt Q9GZT8)	-0.14	-0.407	0.115
NIFK (UniProt Q9BYG3)	1.5	0.467	-1.78
NIP7 (UniProt Q9Y221)	0.337	-0.869	-0.111
NIPA2 (UniProt Q8N8Q9)	0.499	0.101	0.36
NIPBL (UniProt Q6KC79)	-0.0211	-0.00358	-0.167
NIPSNAP1 (UniProt Q9BPW8)	-1.48	-0.204	-0.872
NIPSNAP3A (UniProt Q9UFN0)	0.144	0.432	0.337
NIT1 (UniProt Q86X76)	0.836	0.924	0.439
NIT2 (UniProt Q9NQR4)	0.25	0.109	0.0727
NKIRAS1 (UniProt Q9NYS0)	-0.202	-0.125	-0.0379
NKIRAS2 (UniProt Q9NYR9)	0.0549	-0.0133	0.137
